Calls of active or inactive are those of the source. No cut-off for these calls is given here.
How the values were obtained:
[1] = target: Human immunodeficiency virus type 1 reverse transcriptase (Human immunodeficiency virus 1, UniProt Q72547); assay: Activity at HIV1 non-nucleoside reverse transcriptase
[2] = target: Human immunodeficiency virus type 1 reverse transcriptase (Human immunodeficiency virus 1) (UniProt Q72547); assay: Ratio of Ki to Km for HIV1 non-nucleoside reverse transcriptase
[3] = test system: Human immunodeficiency virus 2; assay: Antiviral activity against HIV2 ROD infected in human CEM cells assessed as inhibition of virus-induced cytopathicity after 4 days; assay type: functional, organism-based; conditions: Human immunodeficiency virus 2, ROD, CCRF-CEM, 96 h
[4] = Selectivity index, ratio of CC50 for human CEM cells to EC50 for HIV1 3B; assay type: toxicity, cell-based, CCRF-CEM; conditions: read-out: Ratio CC50/EC50
[5] = test system: Human alphaherpesvirus 1; assay: Antiviral activity against Herpes simplex virus type 1 infected in HEL cells; assay type: functional, organism-based
[6] = test system: Human alphaherpesvirus 2; assay: Antiviral activity against Herpes simplex virus type 2 infected in HEL cells; assay type: functional, organism-based
[7] = test system: Vaccinia virus; assay: Antiviral activity against Vaccinia virus infected in HEL cells; assay type: functional, organism-based; conditions: Orthopoxvirus vaccinia
[8] = test system: Vesicular stomatitis virus; assay: Antiviral activity against Vesicular stomatitis virus infected in HEL cells; assay type: functional, organism-based
[9] = test system: Human respirovirus 3; assay: Antiviral activity against Parainfluenza virus type 3 infected in african green monkey Vero cells; assay type: functional, organism-based
[10] = test system: Mammalian orthoreovirus 1; assay: Antiviral activity against Reovirus 1 infected in african green monkey Vero cells; assay type: functional, organism-based
[11] = test system: Sindbis virus; assay: Antiviral activity against Sindbis virus infected in african green monkey Vero cells; assay type: functional, organism-based
[12] = test system: Coxsackievirus B4; assay: Antiviral activity against Coxsackievirus B4 infected in african green monkey Vero cells; assay type: functional, organism-based
[13] = test system: Punta Toro virus; assay: Antiviral activity against Punta Toro virus infected in african green monkey Vero cells; assay type: functional, organism-based
[14] = test system: Vesicular stomatitis virus; assay: Antiviral activity against Vesicular stomatitis virus infected in human HeLa cells; assay type: functional, organism-based
[15] = test system: Respiratory syncytial virus; assay: Antiviral activity against Respiratory syncytial virus infected in human HeLa cells; assay type: functional, organism-based
[16] = test system: Coxsackievirus B4; assay: Antiviral activity against Coxsackievirus B4 infected in human HeLa cells; assay type: functional, organism-based
[17] = test system: Feline coronavirus; assay: Antiviral activity against Feline coronavirus infected in crandel feline kidney cells; assay type: functional, organism-based
[18] = test system: Influenza A virus; assay: Antiviral activity against Influenza virus type A H1N1 infected in MDCK cells; assay type: functional, organism-based
[19] = test system: Influenza A virus; assay: Antiviral activity against Influenza virus type A H3N2 infected in MDCK cells; assay type: functional, organism-based
[20] = test system: Influenza B virus; assay: Antiviral activity against Influenza virus type B infected in MDCK cells; assay type: functional, organism-based
[21] = test system: Human immunodeficiency virus 1; assay: Antiviral activity against HIV1 3B infected in human CEM cells assessed as inhibition of virus-induced cytopathicity after 4 days; assay type: functional, organism-based; conditions: Human immunodeficiency virus 1, 3B, CCRF-CEM, 96 h
[22] = Cytotoxicity against HIV-infected human CEM cells; assay type: cell-based, CCRF-CEM; conditions: HIV-infected CEM (CCRF-CEM) cells

With `Cc1cc(C)nc(N2C(=O)CSC2C23CC4CC(CC(C4)C2)C3)c1` (racemic) the Ki [1] was 12 µM, the Ratio [2] was 5.5 and the EC50 [3] was > 12 µM. The selectivity ratio [4] was 120, the Activity [5] was “inactive” and the Activity [6] was “inactive”. The Activity [7] was “inactive”, the Activity [8] was “inactive” and the Activity [9] was “inactive”. The Activity [10] was “inactive”, the Activity [11] was “inactive” and the Activity [12] was “inactive”. For the same compound, the Activity [13] was “inactive”, the Activity [14] was “inactive” and the Activity [15] was “inactive”. The Activity [16] was “inactive”, the Activity [17] was “inactive” and the Activity [18] was “inactive”. The Activity [19] was “inactive” and the Activity [20] was “inactive”.
For `CCN(CC)CCN1C(=O)CSC1CC12CC3CC(CC(C3)C1)C2` (stereo not given), the EC50 [21] was 30.8 µM, the EC50 [3] was 46 µM and the CC50 [22] was 43 µM. The selectivity ratio [4] was < 1.4, the Activity [5] was “inactive” and the Activity [6] was “inactive”. The Activity [7] was “inactive”, the Activity [8] was “inactive” and the Activity [9] was “inactive”. For the same compound, the Activity [10] was “inactive”, the Activity [11] was “inactive” and the Activity [12] was “inactive”. The Activity [13] was “inactive”, the Activity [14] was “inactive” and the Activity [15] was “inactive”. The Activity [16] was “inactive”, the Activity [17] was “inactive” and the Activity [18] was “inactive”. For the same compound, the Activity [19] was “inactive” and the Activity [20] was “inactive”.
